# Where a name gives a salt, the structure may show the parent alone.
# Target: T1, purified recombinant form of human BACE1 aspartyl protease (Homo sapiens, UniProt P56817)
# T1 construct: hexahistidine (C); made in house; host or cells: Drosophila cells
# Assay: in vitro inhibition of β-secretase (BACE1) activity, FRET cleavage of fluorogenic peptide substrate FS1
# Type: biochemical
# Settings: purified enzyme 10 nM, substrate FS1 5 μM, sodium acetate buffer pH 4.5, 37° C., 45 minutes; read-out: IC50 (concentration of product giving 50% inhibition of the enzyme activity)
# Protocol: The tests consisted in measuring the in vitro inhibition of the β-secretase activity by the compounds of the invention.
# The β-secretase activity measured corresponds to that of a purified recombinant form of human BACE1 aspartyl protease (the latter comprising a hexahistidine tag at the C-terminal position) produced by expression in Drosophila cells. The purified enzyme is conditioned in TRIS buffer (18 mM) at pH 7.5 containing NaCl (0.45M), MnCl2 (0.9 mM), CaCl2 (0.9 mM), α-D-methylmannoside and 10% glycerol, and stored at −80° C. until use.
# The BACE1 activity is measured from the cleavage of a fluorogenic peptide substrate, known as FS1, described originally by Ermolieff et Coll. (2000, Biochemistry, 39, 12450-12456), and based on the principle of fluorescence resonance energy transfer (FRET); the cleavage of the FS1 peptide is measured from the increase of the fluorescent signal emitted by the EDANS (or 5-[(2-aminoethyl)amino]naphthalene-[…]) group. The test is carried out in a 96-well microplate in order to determine the inhibition of the enzyme activity by the products of the invention. The substrate FS1 is solubilized to a concentration of 1 mM in 100% dimethylsulfoxide (DMSO) and stored at −20° C. until use. The dilutions of the products to be tested are prepared in DMSO starting from a 10 mM stock solution. The products of the invention, at final concentrations of 0.003 to 10 μM are incubated at 37° C. with the substrate FS1 (final concentration of 5 μM) and the purified enzyme (final concentration of 10 nM) in the sodium acetate buffer (0.1M), pH 4.5 containing 0.02% of CHAPS detergent and 200 mM NaCl for 45 minutes. […] When the incubation is finished, the fluorescence is measured in a spectrofluorimeter, at the excitation wavelength of 355 nm and emission wavelength of 509 nm. For each product concentration tested, the fluorescent signal is compared to the maximum signal obtained when the substrate FS1 is only incubated with the enzyme.
# The inhibitory activity of the products of the invention is then evaluated by the measurement of the IC50 (concentration of product giving 50% inhibition of the enzyme activity) using a non-linear regression analysis (computer application software XLfit, IDBS™).
# T1 sequence (P56817 46-501): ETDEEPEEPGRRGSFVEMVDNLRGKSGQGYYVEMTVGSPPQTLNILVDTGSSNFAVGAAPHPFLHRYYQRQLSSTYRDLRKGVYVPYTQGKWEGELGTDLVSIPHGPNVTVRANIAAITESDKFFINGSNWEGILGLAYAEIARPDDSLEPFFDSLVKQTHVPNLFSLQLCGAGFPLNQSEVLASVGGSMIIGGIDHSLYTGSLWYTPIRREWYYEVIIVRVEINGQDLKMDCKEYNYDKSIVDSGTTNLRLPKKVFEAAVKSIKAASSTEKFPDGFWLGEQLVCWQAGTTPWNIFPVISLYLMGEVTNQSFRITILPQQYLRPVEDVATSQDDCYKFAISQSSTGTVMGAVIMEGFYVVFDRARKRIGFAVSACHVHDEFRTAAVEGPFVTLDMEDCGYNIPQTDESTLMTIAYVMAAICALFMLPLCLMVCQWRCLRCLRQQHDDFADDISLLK
row,SMILES,IC50 [nM]
1,"CCCC(CCC)N1CCc2c(C(=O)N[C@@H](Cc3cc(F)cc(F)c3)[C@H](O)CNC3(c4cccc(C(F)(F)F)c4)CC3)cc(N(C)S(C)(=O)=O)cc2C1=O [Compound 9, N-[(1S,2R)-1-(3,5-difluorobenzyl)-2-hydroxy-3-({1-[3-(trifluoromethyl)phenyl]cyclopropyl}amino)propyl]-7-[methyl(methylsulfonyl)amino]-1-oxo-2-(1-propylbutyl)-1,2,3,4-tetrahydroisoquinoline-5-carboxamide hydrochloride (1:1)]",48
2,"CCCC(CCC)N1Cc2c(C(=O)N[C@@H](Cc3ccccc3)[C@H](O)CNCc3cccc(C(F)(F)F)c3)cccc2C1=O [Compound 1, N-[(1S,2R)-1-benzyl-2-hydroxy-3-{[3-(trifluoromethyl)benzyl]amino}propyl]-1-oxo-2-(1-propylbutyl)isoindoline-4-carboxamide hydrochloride (1:1)]",770
3,"CCCC(CCC)N1CCc2c(C(=O)N[C@@H](Cc3cc(F)cc(F)c3)[C@H](O)CNC3(c4cccc(C(F)(F)F)c4)CC3)cc(-c3cccc(C#N)c3)cc2C1=O [Compound 16, N-[(1S,2R)-1-(3,5-difluorobenzyl)-2-hydroxy-3-({1-[3-(trifluoromethyl)phenyl]cyclopropyl}amino)propyl]-7-(3-cyanophenyl)-1-oxo-2-(1-propylbutyl)-1,2,3,4-tetrahydroisoquinoline-5-carboxamide hydrochloride (1:1)]",390
4,"CCCC(CCC)N1CCc2c(C(=O)N[C@@H](Cc3cc(F)cc(F)c3)[C@H](O)CNC3(c4cccc(C(F)(F)F)c4)CC3)cc(-c3ccccc3C#N)cc2C1=O [Compound 17, N-[(1S,2R)-1-(3,5-difluorobenzyl)-2-hydroxy-3-({1-[3-(trifluoromethyl)phenyl]cyclopropyl}amino)propyl]-7-(2-cyanophenyl)-1-oxo-2-(1-propylbutyl)-1,2,3,4-tetrahydroisoquinoline-5-carboxamide hydrochloride (1:1)]",630

# Tested on: not given
# Assay: not given
# Settings: not given
row,SMILES,melting point [°C]
1,CCCC(CCC)N1CCc2c(C(=O)N[C@@H](Cc3ccccc3)[C@H](O)CNC3(c4cccc(C(F)(F)F)c4)CC3)cccc2C1=O.Cl,174
2,CCCC(CCC)N1CCc2c(C(=O)N[C@@H](Cc3cc(F)cc(F)c3)[C@H](O)CNC3(c4cccc(C(F)(F)F)c4)CC3)cc(C(F)(F)F)cc2C1=O.Cl,196
3,CC(c1ccc(F)cc1)N1CCc2c(C(=O)N[C@@H](Cc3cc(F)cc(F)c3)[C@H](O)CNC3(c4cccc(C(F)(F)F)c4)CC3)cccc2C1=O.Cl (some centres unmarked),157
4,CCCC(CCC)N1Cc2c(C(=O)N[C@@H](Cc3cc(F)cc(F)c3)[C@H](O)CNC3(c4cccc(C(F)(F)F)c4)CC3)cc(N(C)S(C)(=O)=O)cc2C1=O.Cl,194
5,Cl.O=C(N[C@@H](Cc1cc(F)cc(F)c1)[C@H](O)CNC1(c2cccc(C(F)(F)F)c2)CC1)c1cccc2c1CCN(Cc1ccccc1)C2=O,178
6,CCCCCN1CCc2c(C(=O)N[C@@H](Cc3cc(F)cc(F)c3)[C@H](O)CNC3(c4cccc(C(F)(F)F)c4)CC3)cccc2C1=O.Cl,165
7,CCCC(CCC)N1CCc2c(C(=O)N[C@@H](Cc3cc(F)cc(F)c3)[C@H](O)CNC3(c4cccc(C(F)(F)F)c4)CC3)cccc2C1=O.Cl,172
